Measured values as given in ChEMBL document CHEMBL1828590 (J Med Chem, 2011).

What was measured:
Histone deacetylase 1 [1] = molecular target: T1, Histone deacetylase 1 (Homo sapiens, UniProt Q13547)
Description: Inhibition of full length recombinant HDAC1 using Fluor de Lys as substrate by fluorescence assay

COLO 205 = experiment: Antiproliferative activity against human COLO205 cells after 96 hrs by celltiter 96 assay; format: functional, cell-based; conditions: COLO 205, 96 h
PC-3 = experiment: Antiproliferative activity against human PC3 cells after 96 hrs by celltiter 96 assay; format: functional, cell-based; conditions: PC-3, 96 h
HCT-116 = experiment: Antiproliferative activity against human HCT116 cells after 96 hrs by celltiter 96 assay; format: functional, cell-based; conditions: HCT-116, 96 h
A2780 = experiment: Antiproliferative activity against human A2780 cells after 96 hrs by celltiter 96 assay; format: functional, cell-based; conditions: A2780, 96 h
[2] = Half life in human liver microsomes; format: ADME, Microsome
[3] = Half life in mouse liver microsomes; format: ADME, Microsome; conditions: liver microsomes
Histone deacetylase 1 [4] = molecular target: T1, Histone deacetylase 1; remark: listed apart in the source
Description: Competitive inhibition of HDAC1 using KI-104 as substrate by fluorescence assay

Histone deacetylase 8 = molecular target: T2, Histone deacetylase 8 (Homo sapiens, UniProt Q9BY41)
T2 sequence (Q9BY41 whole entry): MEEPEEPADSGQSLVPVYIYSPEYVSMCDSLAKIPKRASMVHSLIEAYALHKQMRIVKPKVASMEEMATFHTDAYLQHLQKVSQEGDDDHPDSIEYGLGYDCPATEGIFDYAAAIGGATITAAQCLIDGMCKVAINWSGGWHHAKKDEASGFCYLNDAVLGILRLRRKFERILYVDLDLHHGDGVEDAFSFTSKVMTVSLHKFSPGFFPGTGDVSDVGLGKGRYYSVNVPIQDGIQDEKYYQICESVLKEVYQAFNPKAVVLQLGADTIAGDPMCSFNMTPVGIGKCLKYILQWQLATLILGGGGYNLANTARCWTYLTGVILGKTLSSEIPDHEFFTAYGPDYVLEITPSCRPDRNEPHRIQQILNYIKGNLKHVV
Description: Competitive inhibition of HDAC8 using KI-104 as substrate by fluorescence assay

Histone deacetylase 3 = Histone deacetylase 3 (Homo sapiens, UniProt O15379)
Sequence of Histone deacetylase 3 (O15379 whole entry): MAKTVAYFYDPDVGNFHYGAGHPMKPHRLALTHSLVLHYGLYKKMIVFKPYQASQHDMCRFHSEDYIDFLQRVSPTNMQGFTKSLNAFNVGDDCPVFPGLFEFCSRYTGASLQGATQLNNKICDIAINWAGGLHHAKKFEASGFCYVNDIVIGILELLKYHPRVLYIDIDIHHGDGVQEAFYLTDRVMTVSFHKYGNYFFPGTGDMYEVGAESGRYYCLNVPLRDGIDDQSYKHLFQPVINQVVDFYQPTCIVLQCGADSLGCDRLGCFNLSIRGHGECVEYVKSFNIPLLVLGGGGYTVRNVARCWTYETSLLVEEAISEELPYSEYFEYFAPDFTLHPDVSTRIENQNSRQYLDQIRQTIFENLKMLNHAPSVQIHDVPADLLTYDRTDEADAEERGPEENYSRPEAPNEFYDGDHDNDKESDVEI
Description: Competitive inhibition of HDAC3 using KI-104 as substrate by fluorescence assay

Histone deacetylase 9 = Histone deacetylase 9 (Homo sapiens, UniProt Q9UKV0)
Sequence of Histone deacetylase 9 (Q9UKV0 whole entry): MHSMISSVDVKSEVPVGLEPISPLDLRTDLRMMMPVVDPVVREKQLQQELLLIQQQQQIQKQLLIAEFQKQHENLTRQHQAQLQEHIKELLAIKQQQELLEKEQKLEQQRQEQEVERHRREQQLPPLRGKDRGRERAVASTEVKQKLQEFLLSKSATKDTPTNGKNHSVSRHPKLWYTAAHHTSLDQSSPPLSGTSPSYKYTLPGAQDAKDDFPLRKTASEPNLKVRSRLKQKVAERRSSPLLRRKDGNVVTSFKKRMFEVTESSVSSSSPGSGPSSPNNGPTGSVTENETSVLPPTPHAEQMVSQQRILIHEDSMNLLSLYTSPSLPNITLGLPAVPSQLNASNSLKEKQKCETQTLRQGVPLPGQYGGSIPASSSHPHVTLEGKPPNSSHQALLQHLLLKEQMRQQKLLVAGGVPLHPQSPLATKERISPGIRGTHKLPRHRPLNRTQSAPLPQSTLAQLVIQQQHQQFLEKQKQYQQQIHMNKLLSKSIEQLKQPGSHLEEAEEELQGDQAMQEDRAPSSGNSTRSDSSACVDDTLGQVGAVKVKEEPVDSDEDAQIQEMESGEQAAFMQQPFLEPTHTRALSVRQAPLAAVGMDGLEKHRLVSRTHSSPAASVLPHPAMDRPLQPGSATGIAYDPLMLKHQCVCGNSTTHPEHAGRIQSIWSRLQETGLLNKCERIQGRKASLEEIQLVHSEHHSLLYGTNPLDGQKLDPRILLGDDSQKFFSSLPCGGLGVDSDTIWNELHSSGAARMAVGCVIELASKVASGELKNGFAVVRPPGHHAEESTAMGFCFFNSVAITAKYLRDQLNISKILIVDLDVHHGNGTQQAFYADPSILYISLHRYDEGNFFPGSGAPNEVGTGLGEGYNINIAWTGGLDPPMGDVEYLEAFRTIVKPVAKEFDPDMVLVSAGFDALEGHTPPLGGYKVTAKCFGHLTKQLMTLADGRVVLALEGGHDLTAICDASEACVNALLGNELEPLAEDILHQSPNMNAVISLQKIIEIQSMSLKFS
Description: Competitive inhibition of HDAC9 using KI-104 as substrate by fluorescence assay

Histone deacetylase 2 = Histone deacetylase 2 (Homo sapiens, UniProt Q92769)
Sequence of Histone deacetylase 2 (Q92769 whole entry): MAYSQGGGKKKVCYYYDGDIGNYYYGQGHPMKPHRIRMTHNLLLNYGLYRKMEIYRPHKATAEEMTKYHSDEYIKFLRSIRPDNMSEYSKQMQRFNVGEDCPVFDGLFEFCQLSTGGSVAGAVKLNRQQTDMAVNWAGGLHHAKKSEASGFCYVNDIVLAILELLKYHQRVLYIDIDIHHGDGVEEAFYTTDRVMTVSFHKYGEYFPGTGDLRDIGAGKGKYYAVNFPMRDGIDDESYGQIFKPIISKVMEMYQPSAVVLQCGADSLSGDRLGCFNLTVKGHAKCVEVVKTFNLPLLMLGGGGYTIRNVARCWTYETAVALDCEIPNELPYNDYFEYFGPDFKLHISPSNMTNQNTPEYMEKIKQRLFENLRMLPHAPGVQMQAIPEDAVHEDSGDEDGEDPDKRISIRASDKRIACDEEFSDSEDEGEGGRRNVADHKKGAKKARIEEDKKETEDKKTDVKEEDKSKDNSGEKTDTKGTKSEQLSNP
Description: Competitive inhibition of HDAC2 using KI-104 as substrate by fluorescence assay

[5] = molecular target: T3, Polyamine deacetylase HDAC10 (Homo sapiens, UniProt Q969S8)
T3 sequence (Q969S8 whole entry): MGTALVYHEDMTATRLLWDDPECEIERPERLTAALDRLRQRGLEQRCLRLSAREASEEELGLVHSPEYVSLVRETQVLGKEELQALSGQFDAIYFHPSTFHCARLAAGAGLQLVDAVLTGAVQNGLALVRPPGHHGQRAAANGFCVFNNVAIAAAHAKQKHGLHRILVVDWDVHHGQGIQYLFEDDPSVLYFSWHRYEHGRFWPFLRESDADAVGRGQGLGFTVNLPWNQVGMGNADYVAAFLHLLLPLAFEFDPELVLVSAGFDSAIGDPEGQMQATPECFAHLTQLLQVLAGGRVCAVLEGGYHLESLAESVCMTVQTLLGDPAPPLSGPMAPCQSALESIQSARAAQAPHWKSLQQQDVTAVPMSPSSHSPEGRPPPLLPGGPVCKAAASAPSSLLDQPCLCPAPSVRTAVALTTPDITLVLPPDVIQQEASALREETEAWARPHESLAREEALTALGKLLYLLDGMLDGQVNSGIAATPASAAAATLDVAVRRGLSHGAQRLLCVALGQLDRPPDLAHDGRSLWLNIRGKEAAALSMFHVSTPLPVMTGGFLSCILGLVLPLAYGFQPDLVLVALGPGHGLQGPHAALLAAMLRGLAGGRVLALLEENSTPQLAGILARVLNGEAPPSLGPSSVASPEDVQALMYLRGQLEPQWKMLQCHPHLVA
Description: Competitive inhibition of HDAC10 using KI-104 as substrate by fluorescence assay

Histone deacetylase 11 = molecular target: T4, Histone deacetylase 11 (Homo sapiens, UniProt Q96DB2)
T4 sequence (Q96DB2 whole entry): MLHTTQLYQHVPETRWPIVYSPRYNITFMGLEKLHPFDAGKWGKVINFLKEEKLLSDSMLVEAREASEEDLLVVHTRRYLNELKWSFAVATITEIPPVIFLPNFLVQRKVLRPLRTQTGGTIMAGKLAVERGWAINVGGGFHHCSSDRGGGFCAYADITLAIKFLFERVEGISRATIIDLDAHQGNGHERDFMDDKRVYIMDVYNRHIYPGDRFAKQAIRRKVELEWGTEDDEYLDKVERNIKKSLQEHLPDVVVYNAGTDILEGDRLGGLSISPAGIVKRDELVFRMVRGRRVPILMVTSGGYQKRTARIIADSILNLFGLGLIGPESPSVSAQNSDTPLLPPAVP
Description: Competitive inhibition of HDAC11 using KI-104 as substrate by fluorescence assay

Histone deacetylase 5 = Histone deacetylase 5 (Homo sapiens, UniProt Q9UQL6)
Sequence of Histone deacetylase 5 (Q9UQL6 whole entry): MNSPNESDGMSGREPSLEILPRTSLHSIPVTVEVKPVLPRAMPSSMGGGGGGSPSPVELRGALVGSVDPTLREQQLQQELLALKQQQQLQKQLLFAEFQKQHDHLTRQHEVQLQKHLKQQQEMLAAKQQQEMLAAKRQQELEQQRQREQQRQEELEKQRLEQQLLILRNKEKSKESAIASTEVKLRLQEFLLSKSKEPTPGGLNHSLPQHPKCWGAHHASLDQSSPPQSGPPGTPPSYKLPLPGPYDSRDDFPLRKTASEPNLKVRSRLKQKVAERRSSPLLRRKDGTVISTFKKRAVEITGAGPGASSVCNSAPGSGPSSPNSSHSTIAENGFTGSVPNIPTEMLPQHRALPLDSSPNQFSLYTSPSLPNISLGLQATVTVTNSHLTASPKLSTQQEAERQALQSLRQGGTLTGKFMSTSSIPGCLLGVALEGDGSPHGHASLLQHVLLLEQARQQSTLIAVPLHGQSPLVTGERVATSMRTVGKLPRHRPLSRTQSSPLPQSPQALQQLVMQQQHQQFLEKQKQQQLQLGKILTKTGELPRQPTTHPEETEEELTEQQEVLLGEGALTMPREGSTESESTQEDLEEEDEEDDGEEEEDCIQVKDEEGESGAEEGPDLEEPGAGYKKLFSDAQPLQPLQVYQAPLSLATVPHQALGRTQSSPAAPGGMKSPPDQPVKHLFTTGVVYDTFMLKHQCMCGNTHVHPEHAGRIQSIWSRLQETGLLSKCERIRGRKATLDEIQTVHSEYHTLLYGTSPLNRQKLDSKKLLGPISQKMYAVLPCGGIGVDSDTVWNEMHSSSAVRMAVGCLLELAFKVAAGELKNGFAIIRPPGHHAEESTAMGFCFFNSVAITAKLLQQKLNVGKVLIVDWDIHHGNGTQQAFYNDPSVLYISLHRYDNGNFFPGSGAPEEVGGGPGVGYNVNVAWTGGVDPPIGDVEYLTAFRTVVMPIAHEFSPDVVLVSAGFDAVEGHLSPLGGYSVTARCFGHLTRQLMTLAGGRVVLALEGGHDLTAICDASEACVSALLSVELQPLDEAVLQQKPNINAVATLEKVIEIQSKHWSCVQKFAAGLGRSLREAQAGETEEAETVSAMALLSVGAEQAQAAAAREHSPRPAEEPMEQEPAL
Description: Competitive inhibition of HDAC5 using KI-104 as substrate by fluorescence assay

[6] = molecular target: T5, Protein deacetylase HDAC6 (Homo sapiens, UniProt Q9UBN7)
T5 sequence (Q9UBN7 whole entry): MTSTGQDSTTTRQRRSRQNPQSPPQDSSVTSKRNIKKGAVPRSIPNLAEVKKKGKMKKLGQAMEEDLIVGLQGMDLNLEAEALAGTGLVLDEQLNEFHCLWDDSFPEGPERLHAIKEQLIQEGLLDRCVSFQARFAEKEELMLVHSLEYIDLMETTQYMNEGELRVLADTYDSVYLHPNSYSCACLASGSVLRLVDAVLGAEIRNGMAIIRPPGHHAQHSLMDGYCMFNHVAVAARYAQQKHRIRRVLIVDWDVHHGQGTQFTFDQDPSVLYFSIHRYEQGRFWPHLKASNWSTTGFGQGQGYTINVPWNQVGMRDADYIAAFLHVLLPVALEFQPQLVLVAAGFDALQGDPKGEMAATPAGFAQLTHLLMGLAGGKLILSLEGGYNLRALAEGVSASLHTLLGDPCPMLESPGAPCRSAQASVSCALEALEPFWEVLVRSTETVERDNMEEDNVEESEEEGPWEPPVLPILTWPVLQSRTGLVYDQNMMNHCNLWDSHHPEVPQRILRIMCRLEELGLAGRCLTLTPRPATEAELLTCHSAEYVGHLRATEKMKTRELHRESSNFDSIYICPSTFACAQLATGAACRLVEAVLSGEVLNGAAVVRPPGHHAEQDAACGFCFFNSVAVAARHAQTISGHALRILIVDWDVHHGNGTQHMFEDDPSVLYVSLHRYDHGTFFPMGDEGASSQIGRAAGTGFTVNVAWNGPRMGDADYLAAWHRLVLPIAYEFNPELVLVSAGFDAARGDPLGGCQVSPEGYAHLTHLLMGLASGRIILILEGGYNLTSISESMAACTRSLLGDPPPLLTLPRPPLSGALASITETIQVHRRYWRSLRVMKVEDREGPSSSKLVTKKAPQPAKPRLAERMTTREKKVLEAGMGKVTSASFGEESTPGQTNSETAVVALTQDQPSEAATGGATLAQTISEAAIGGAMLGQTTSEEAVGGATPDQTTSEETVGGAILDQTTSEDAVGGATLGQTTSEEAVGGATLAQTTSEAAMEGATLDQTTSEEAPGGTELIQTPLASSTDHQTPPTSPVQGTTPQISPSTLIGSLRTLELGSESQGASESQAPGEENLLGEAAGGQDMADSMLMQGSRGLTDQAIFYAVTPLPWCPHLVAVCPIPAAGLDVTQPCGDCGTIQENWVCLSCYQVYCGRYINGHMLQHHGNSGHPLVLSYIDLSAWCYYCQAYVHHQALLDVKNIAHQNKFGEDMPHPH
Description: Competitive inhibition of HDAC6 using KI-104 as substrate by fluorescence assay

Histone deacetylase 4 = Histone deacetylase 4 (Homo sapiens, UniProt P56524)
Sequence of Histone deacetylase 4 (P56524 whole entry): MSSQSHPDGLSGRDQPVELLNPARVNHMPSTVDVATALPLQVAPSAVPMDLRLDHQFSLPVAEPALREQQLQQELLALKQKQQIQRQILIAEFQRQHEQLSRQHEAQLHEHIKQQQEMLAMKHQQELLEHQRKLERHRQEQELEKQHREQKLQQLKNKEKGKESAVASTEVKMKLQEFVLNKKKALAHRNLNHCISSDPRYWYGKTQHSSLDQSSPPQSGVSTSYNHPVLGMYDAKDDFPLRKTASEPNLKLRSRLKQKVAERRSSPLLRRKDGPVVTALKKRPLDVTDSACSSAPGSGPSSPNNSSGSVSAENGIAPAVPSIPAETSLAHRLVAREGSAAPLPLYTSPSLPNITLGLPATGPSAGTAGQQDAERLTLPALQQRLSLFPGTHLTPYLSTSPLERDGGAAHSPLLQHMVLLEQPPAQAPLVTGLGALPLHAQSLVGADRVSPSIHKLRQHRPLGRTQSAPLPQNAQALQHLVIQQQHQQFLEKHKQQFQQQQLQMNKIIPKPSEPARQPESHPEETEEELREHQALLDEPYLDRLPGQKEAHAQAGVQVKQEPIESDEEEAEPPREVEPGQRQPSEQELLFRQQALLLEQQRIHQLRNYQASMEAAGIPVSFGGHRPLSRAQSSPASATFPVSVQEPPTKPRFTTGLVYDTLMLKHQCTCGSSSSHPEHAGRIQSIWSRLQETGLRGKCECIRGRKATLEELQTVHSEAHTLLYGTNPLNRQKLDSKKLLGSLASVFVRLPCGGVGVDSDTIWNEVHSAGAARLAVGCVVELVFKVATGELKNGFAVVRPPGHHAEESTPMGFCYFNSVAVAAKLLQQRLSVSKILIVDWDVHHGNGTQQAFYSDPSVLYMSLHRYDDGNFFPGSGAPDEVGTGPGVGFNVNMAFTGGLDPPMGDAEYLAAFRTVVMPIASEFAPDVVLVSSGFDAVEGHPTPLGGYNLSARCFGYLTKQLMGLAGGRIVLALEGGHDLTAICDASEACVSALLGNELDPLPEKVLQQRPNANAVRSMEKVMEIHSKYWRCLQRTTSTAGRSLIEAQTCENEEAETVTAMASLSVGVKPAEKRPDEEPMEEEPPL
Description: Competitive inhibition of HDAC4 using KI-104 as substrate by fluorescence assay

T1 sequence (Q13547 whole entry): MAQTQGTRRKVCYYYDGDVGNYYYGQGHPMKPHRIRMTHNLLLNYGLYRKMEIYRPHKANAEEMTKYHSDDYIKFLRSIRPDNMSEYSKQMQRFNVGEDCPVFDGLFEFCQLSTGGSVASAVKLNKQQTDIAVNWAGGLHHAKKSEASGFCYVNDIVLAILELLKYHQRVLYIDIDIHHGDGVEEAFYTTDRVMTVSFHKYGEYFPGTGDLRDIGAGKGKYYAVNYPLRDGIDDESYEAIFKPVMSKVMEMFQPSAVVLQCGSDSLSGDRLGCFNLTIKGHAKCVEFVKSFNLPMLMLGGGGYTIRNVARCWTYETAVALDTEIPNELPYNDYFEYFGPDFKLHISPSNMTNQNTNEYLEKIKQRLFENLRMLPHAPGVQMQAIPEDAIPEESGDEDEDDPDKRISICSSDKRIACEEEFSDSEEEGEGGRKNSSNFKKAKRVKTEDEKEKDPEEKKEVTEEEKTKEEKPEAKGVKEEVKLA

Row | SMILES | IC50 (Histone deacetylase 1 [1]) [nM] | IC50 (COLO 205) [nM] | other results
1 | CCCCCc1nc2cc(/C=C/C(=O)NO)ccc2n1CCNCC | 27 | 420 | –
2 | CC(Cc1nc2cc(/C=C/C(=O)NO)ccc2n1CC(C)(C)CN(C)C)CC(C)(C)C (stereo not given) | 37 | 150 | IC50 (PC-3): 310 nM; IC50 (HCT-116): 410 nM; IC50 (A2780): 230 nM
3 | CCCCc1nc2cc(/C=C/C(=O)NO)ccc2n1CCC(C)C | 2490 | 6020 | –
4 | CCCCCCc1nc2cc(/C=C/C(=O)NO)ccc2n1CCN(CC)CC | 45 | 420 | –
5 | CCCCCCCCc1nc2cc(/C=C/C(=O)NO)ccc2n1CCN | 22 | 540 | –
6 | CCCCc1nc2cc(/C=C/C(=O)NO)ccc2n1CCN(C)CC | – | 1650 | –
7 | CCCCCc1nc2cc(/C=C/C(=O)NO)ccc2n1CCNC | 41 | 950 | –
8 | CC(C)c1nc2cc(/C=C/C(=O)NO)ccc2n1CC(C)(C)CN(C)C | 308 | 1730 | –
9 | CCCCCCCCc1nc2cc(/C=C/C(=O)NO)ccc2n1CCNC | 15 | 230 | –
10 | CCN(CC)CCn1c(C2CC2c2ccccc2)nc2cc(/C=C/C(=O)NO)ccc21 (trans isomer) | 169 | 630 | –
11 | CCN(CC)CCn1c(CC2CC3CCC2C3)nc2cc(/C=C/C(=O)NO)ccc21 (stereo not given) | 32 | 390 | IC50 (PC-3): 530 nM; IC50 (HCT-116): 330 nM; IC50 (A2780): 210 nM
12 | CN(C)CC(C)(C)Cn1c(C2CCCCC2)nc2cc(/C=C/C(=O)NO)ccc21 | 421 | 2450 | –
13 | CC(C)Cc1nc2cc(/C=C/C(=O)NO)ccc2n1CC(C)(C)CN(C)C | 175 | 2690 | –
14 | CCN(CC)CCn1c(CC(C)C)nc2cc(/C=C/C(=O)NO)ccc21 | 92 | 810 | IC50 (PC-3): 950 nM; IC50 (HCT-116): 1300 nM; IC50 (A2780): 1240 nM
15 | CCN(CC)CCn1c(CC(C)(C)C)nc2cc(/C=C/C(=O)NO)ccc21 | 135 | 1190 | –
16 | CCCCc1nc2cc(/C=C/C(=O)NO)ccc2n1CCCNC(C)C | 165 | 2890 | –
17 | CCCc1nc2cc(/C=C/C(=O)NO)ccc2n1CCN(CC)CC | 155 | 980 | –
18 | CCCCCCc1nc2cc(/C=C/C(=O)NO)ccc2n1CCNC | 29 | 550 | –
19 | CCCCCc1nc2cc(/C=C/C(=O)NO)ccc2n1C1CCCN(C)C1 (stereo not given) | 158 | 2100 | –

Row | SMILES | IC50 (Histone deacetylase 1 [1]) [nM] | IC50 (COLO 205) [nM] | other results
20 | CCCCc1nc2cc(/C=C/C(=O)NO)ccc2n1C1CCNCC1 | – | 7000 | –
21 | CN(C)CCn1c(C2CC2c2ccccc2)nc2cc(/C=C/C(=O)NO)ccc21 (stereo not given) | 175 | 690 | –
22 | CCCCc1nc2cc(/C=C/C(=O)NO)ccc2n1CCN(C(C)C)C(C)C | 335 | 1870 | –
23 | CCCCc1nc2cc(/C=C/C(=O)NO)ccc2n1CCN(C)C(C)C | 45 | 540 | –
24 | CCCCc1nc2cc(/C=C/C(=O)NO)ccc2n1CCN(C)C | 90 | 650 | –
25 | NCCn1c(C2CC2c2ccccc2)nc2cc(/C=C/C(=O)NO)ccc21 (stereo not given) | 84 | 4530 | –
26 | CCCCCc1nc2cc(/C=C/C(=O)NO)ccc2n1CCN(C)CC | 41 | 450 | –
27 | CCCCCCc1nc2cc(/C=C/C(=O)NO)ccc2n1C1CCNC1 (stereo not given) | 41 | 1460 | –
28 | CCNCCn1c(CC(C)CC(C)(C)C)nc2cc(/C=C/C(=O)NO)ccc21 (stereo not given) | 23 | 140 | IC50 (PC-3): 100 nM; IC50 (HCT-116): 270 nM; IC50 (A2780): 140 nM
29 | CCCCc1nc2cc(/C=C/C(=O)NO)ccc2n1C1CCN(C)C1 (stereo not given) | 125 | 1090 | –
30 | CCCCc1nc2cc(/C=C/C(=O)NO)ccc2n1C1CCCNC1 (stereo not given) | 190 | 4870 | –
31 | CCN(CC)CCn1c(CCc2ccccc2)nc2cc(/C=C/C(=O)NO)ccc21 | – | – | half-life [2]: ≥ 30 min; half-life [3]: 5 min
32 | CCCCc1nc2cc(/C=C/C(=O)NO)ccc2n1CCNCC | 77 | 880 | IC50 (PC-3): 380 nM; IC50 (HCT-116): 1110 nM; IC50 (A2780): 760 nM
33 | CCCCCCc1nc2cc(/C=C/C(=O)NO)ccc2n1C1CCCNC1 (stereo not given) | 105 | 1340 | –
34 | CCCCc1nc2cc(/C=C/C(=O)NO)ccc2n1C1CCNC1 (stereo not given) | 110 | 16400 | –
35 | CCCCc1nc2cc(/C=C/C(=O)NO)ccc2n1CC(C)(C)CN(C)C | 150 | 2230 | –
36 | CC/C=C\CCc1nc2cc(/C=C/C(=O)NO)ccc2n1CC(C)(C)CN(C)C | 53 | 620 | IC50 (PC-3): 380 nM; IC50 (HCT-116): 920 nM; IC50 (A2780): 370 nM
37 | CC/C=C\CCc1nc2cc(/C=C/C(=O)NO)ccc2n1CCNCC | 21 | 310 | Ki (Histone deacetylase 1 [4]): 7.7 nM; IC50 (PC-3): 160 nM; Ki (Histone deacetylase 8): 55 nM; Ki (Histone deacetylase 3): 16 nM; Ki (Histone deacetylase 9): 5.7 nM; IC50 (HCT-116): 660 nM; Ki (Histone deacetylase 2): 8.6 nM; Ki [5]: 18 nM; Ki (Histone deacetylase 11): 8.8 nM; Ki (Histone deacetylase 5): 3.1 nM; Ki [6]: 4 nM; IC50 (A2780): 200 nM; Ki (Histone deacetylase 4): 2.4 nM
38 | CCN(CC)CCc1nc2cc(/C=C/C(=O)NO)ccc2n1CCC(C)C | 575 | 6810 | –
